This passage reports IC50 results from patent US20260217697A1, “COMPOUNDS COMPRISING HETEROARYL RINGS AND COMPOSITIONS AND METHODS THEREOF” (lonGen Therapeutics Co., Ltd., priority 2022, published 2026).

As a reminder, the IC50 is the midpoint of a concentration-inhibition curve. A lower IC50 goes with greater potency in that assay.

The structures appear in SMILES notation.

The target of the test is T1, hTRPV3 (Homo sapiens, UniProt Q8NET8).
T1 construct: The commercially available plasmid with the full-length cDNA of hTRPV3 (791 aa) (NM_001258205.2); host or cells: HEK293T
T1 sequence (Q8NET8 1-791 isoform Q8NET8-2): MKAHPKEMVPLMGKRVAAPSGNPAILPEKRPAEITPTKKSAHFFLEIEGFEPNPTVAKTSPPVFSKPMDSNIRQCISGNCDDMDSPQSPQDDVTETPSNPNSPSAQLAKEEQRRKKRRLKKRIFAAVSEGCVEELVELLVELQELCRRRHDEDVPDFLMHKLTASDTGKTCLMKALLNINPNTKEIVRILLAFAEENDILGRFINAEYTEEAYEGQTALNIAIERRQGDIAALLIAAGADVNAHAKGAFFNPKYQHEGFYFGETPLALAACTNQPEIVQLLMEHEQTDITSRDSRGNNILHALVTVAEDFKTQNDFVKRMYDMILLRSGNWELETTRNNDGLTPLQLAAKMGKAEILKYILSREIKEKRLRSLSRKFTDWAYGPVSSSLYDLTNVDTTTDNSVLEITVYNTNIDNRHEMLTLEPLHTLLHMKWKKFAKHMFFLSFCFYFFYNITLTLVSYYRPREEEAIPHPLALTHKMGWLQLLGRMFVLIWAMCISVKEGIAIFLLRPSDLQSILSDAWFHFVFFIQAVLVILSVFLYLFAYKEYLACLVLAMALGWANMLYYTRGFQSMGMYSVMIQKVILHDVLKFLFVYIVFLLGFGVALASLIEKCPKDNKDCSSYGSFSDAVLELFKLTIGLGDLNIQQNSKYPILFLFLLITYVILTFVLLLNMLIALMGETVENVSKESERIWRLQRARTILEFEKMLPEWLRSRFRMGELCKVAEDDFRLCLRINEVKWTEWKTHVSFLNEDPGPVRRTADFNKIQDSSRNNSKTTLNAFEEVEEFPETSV
As to the kind of experiment: Whole-cell patch-clamp recording of hTRPV3 current in transfected HEK293T cells (2-APB induced). To be noted: current induced by 300 μM 2-APB, compounds tested up to 10 μM, room temperature. Type of test: cell-based. The method, boiled down:
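IC50 comes from Hill fits, 0–100% bounds, of percent block of 2-APB-induced current, with compounds perfused at up to 10 μM. Currents elicited at +80/−80 mV (400-ms steps, 2-s interval, 0 mV hold), room temperature, symmetric NaCl/EDTA/HEPES pH 7.4 solutions. Cells: hTRPV3-transfected HEK293T, used 18 h after transfection.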
For orientation: In patch-clamp work, channel activity is measured electrically.

In the case of `CCC1(CC)Oc2cc(C(F)(F)F)ccc2-c2nc(NC(=O)c3c(OC)nc(N)nc3OC)sc21` [compound 80, 2-amino-N-(4,4-diethyl-7-(trifluoromethyl)-4H-chromeno[4,3-d]thiazol-2-yl)-4,6-dimethoxypyrimidine-5-carboxamide], the IC50 is ≥ 10000 nM.
The compound `C#Cc1ccc2c(c1)OC(CC)(CC)c1sc(NC(=O)c3c(OC)ncnc3OC)nc1-2` [compound 81, N-(4,4-diethyl-7-ethynyl-4H-chromeno[4,3-d]thiazol-2-yl)-4,6-dimethoxypyrimidine-5-carboxamide] displayed a 50% inhibitory concentration (IC50) of 100 to 1000 nM.
`COc1ncnc(OC)c1C(=O)Nc1nc2c(s1)CCOc1cc(C(F)(F)F)ccc1-2` [compound 82, 4,6-dimethoxy-N-(8-(trifluoromethyl)-4,5-dihydrobenzo[2,3]oxepino[4,5-d]thiazol-2-yl)pyrimidine-5-carboxamide] registered a concentration for half-maximal inhibition (IC50) of 100 to 1000 nM.
`CCC1(CC)Oc2ccc(C(F)(F)F)cc2-c2nc(NC(=O)c3c(OC)ncnc3OC)sc21` [compound 83, N-(4,4-diethyl-8-(trifluoromethyl)-4H-chromeno[4,3-d]thiazol-2-yl)-4,6-dimethoxypyrimidine-5-carboxamide]: the IC50 was ≥ 10000 nM.
`COc1ncnc(OC)c1C(=O)Nc1nc2c(s1)Cc1cc(C(F)(F)F)ccc1-2` [compound 84, 4,6-dimethoxy-N-(6-(trifluoromethyl)-8H-indeno[1,2-d]thiazol-2-yl)pyrimidine-5-carboxamide] came in with a concentration for half-maximal inhibition (IC50) of 1000 to 10000 nM.
The same measure for `COc1ncnc(OC)c1C(=O)Nc1nc2c(s1)C(C)(C)Nc1cc(C(F)(F)F)ccc1-2` [compound 85, N-(4,4-dimethyl-7-(trifluoromethyl)-4,5-dihydrothiazolo[5,4-c]quinolin-2-yl)-4,6-dimethoxypyrimidine-5-carboxamide]: 1000 to 10000 nM; for `COc1ncnc(OC)c1C(=O)Nc1nc2c(s1)COc1ccc(Cl)cc1-2` [compound 86, N-(8-chloro-4H-chromeno[4,3-d]thiazol-2-yl)-4,6-dimethoxypyrimidine-5-carboxamide]: 1000 to 10000 nM.
Turning to `COc1ncnc(OC)c1C(=O)Nc1nc2c(s1)C(C)(C)N(C)c1cc(C(F)(F)F)ccc1-2` [compound 87, 4,6-dimethoxy-N-(4,4,5-trimethyl-7-(trifluoromethyl)-4,5-dihydrothiazolo[5,4-c]quinolin-2-yl)pyrimidine-5-carboxamide], the half-inhibitory concentration (IC50) was in the range of 100 to 1000 nM.
The compound `C=CCN1c2cc(C(F)(F)F)ccc2-c2nc(NC(=O)c3c(OC)ncnc3OC)sc2C1(C)C` [compound 88, N-(5-allyl-4,4-dimethyl-7-(trifluoromethyl)-4,5-dihydrothiazolo[5,4-c]quinolin-2-yl)-4,6-dimethoxypyrimidine-5-carboxamide] came in with an IC50 of 100 to 1000 nM.
Turning to `CCC1(CC)Oc2cc(C(F)(F)F)ccc2-c2nc(NC(=O)c3cc(OC)nnc3Cl)sc21` [compound 89, 3-chloro-N-(4,4-diethyl-7-(trifluoromethyl)-4H-chromeno[4,3-d]thiazol-2-yl)-6-methoxypyridazine-4-carboxamide], the IC50 is ≥ 10000 nM.
Consider `CCC1(CC)Oc2cc(C(F)(F)F)ccc2-c2nc(NC(=O)c3cc(Cl)nnc3OC)sc21` [compound 90, 6-chloro-N-(4,4-diethyl-7-(trifluoromethyl)-4H-chromeno[4,3-d]thiazol-2-yl)-3-methoxypyridazine-4-carboxamide], for which the IC50 lay within 1000 to 10000 nM.
As for `CCC1(CC)Oc2cc(C(F)(F)F)ccc2-c2nc(NC(=O)c3cc(OC)nnc3OC)sc21` [compound 91, N-(4,4-diethyl-7-(trifluoromethyl)-4H-chromeno[4,3-d]thiazol-2-yl)-3,6-dimethoxypyridazine-4-carboxamide], the half-maximal inhibitory concentration (IC50) is ≥ 10000 nM.
On to `COC(=O)N1CC2(C1)Oc1cc(C(F)(F)F)ccc1-c1nc(NC(=O)c3c(OC)ncnc3OC)sc12` [compound 92, methyl 2′-(4,6-dimethoxypyrimidine-5-carboxamido)-7′-(trifluoromethyl)spiro[azetidine-3,4′-chromeno[4,3-d]thiazole]-1-carboxylate], for which the concentration for half-maximal inhibition (IC50) lay in the range of 100 to 1000 nM.
Next, `CCC1(CC)Oc2cc(C(F)(F)F)ccc2-c2nc(NC(=O)c3c(C)n[nH]c3C)sc21` [compound 93, N-(4,4-diethyl-7-(trifluoromethyl)-4H-chromeno[4,3-d]thiazol-2-yl)-3,5-dimethyl-1H-pyrazole-4-carboxamide]: 1000 to 10000 nM; `CCC1(CC)Oc2cc(C(F)(F)F)ccc2-c2nc(NC(=O)c3c[nH]nc3OC)sc21` [compound 94, N-(4,4-diethyl-7-(trifluoromethyl)-4H-chromeno[4,3-d]thiazol-2-yl)-3-methoxy-1H-pyrazole-4-carboxamide]: ≥ 10000 nM; `COc1ncnc(OC)c1C(=O)Nc1nc2c(s1)-c1ccc(C(F)(F)F)cc1OC21CC[S+]([O-])CC1` (stereo not shown) [compound 95, 4,6-dimethoxy-N-(1′-oxido-7-(trifluoromethyl)-2′,3′,5′,6′-tetrahydrospiro[chromeno[3,4-d]thiazole-4,4′-thiopyran]-2-yl)pyrimidine-5-carboxamide]: 1000 to 10000 nM.
Compound `CCC1(CC)Oc2cc(C(F)(F)F)ccc2-c2nc(NC(=O)c3nccnc3OC)sc21` [compound 96, N-(4,4-diethyl-7-(trifluoromethyl)-4H-chromeno[4,3-d]thiazol-2-yl)-3-methoxypyrazine-2-carboxamide] registered a half-maximal inhibitory concentration (IC50) of 1000 to 10000 nM.
Regarding `[2H]C([2H])([2H])Oc1ncnc(OC([2H])([2H])[2H])c1C(=O)Nc1nc2c(s1)C(CC)(CC)Oc1cc(C(F)(F)F)ccc1-2` [compound 97, N-(4,4-diethyl-7-(trifluoromethyl)-4H-chromeno[4,3-d]thiazol-2-yl)-4,6-bis(methoxy-d3)pyrimidine-5-carboxamide], the IC50 lay in the range of 100 to 1000 nM.
The same measure for `CCC1(CC)Oc2cc(C(F)(F)F)ccc2-c2nc(NC(=O)c3c(OC)ccnc3OC)sc21` [compound 98, N-(4,4-diethyl-7-(trifluoromethyl)-4H-chromeno[4,3-d]thiazol-2-yl)-2,4-dimethoxynicotinamide]: 100 to 1000 nM; for `COc1ncnc(OC)c1C(=O)Nc1nc2c(s1)COc1cccc(C(F)(F)F)c1-2` [compound 99, 4,6-dimethoxy-N-(9-(trifluoromethyl)-4H-chromeno[4,3-d]thiazol-2-yl)pyrimidine-5-carboxamide]: ≥ 10000 nM; for `COc1ncnc(OC)c1C(=O)Nc1nc2c(s1)C(CF)(CF)Oc1cc(C(F)(F)F)ccc1-2` [compound 100]: < 100 nM.
Turning to `COc1ncnc(OC)c1C(=O)Nc1nc2c(s1)C1(CCC(C(=O)O)CC1)Oc1cc(C(F)(F)F)ccc1-2` (stereo not shown) [compound 101, 2-(4,6-dimethoxypyrimidine-5-carboxamido)-7-(trifluoromethyl)spiro[chromeno[4,3-d]thiazole-4,1′-cyclohexane]-4′-carboxylic acid], the IC50 is ≥ 10000 nM.
With `COc1ncnc(OC)c1C(=O)Nc1nc2c(s1)C1(CCC(C(N)=O)CC1)Oc1cc(C(F)(F)F)ccc1-2` (stereo not shown) [compound 102, 2-(4,6-dimethoxypyrimidine-5-carboxamido)-7-(trifluoromethyl)spiro[chromeno[4,3-d]thiazole-4,1′-cyclohexane]-4′-carboxamide], the IC50 was ≥ 10000 nM.
Take `CNC(=O)C1CCC2(CC1)Oc1cc(C(F)(F)F)ccc1-c1nc(NC(=O)c3c(OC)ncnc3OC)sc12` (stereo not shown) [compound 103, 2-(4,6-dimethoxypyrimidine-5-carboxamido)-N-methyl-7-(trifluoromethyl)spiro[chromeno[4,3-d]thiazole-4,1′-cyclohexane]-4′-carboxamide]: the concentration for half-maximal inhibition (IC50) lay within 1000 to 10000 nM.
As for `CCOC(=O)CCCC1(C)Oc2cc(C(F)(F)F)ccc2-c2nc(NC(=O)c3c(OC)ncnc3OC)sc21` (stereo not shown) [compound 104, ethyl 4-(2-(4,6-dimethoxypyrimidine-5-carboxamido)-4-methyl-7-(trifluoromethyl)-4H-chromeno[4,3-d]thiazol-4-yl)butanoate], the IC50 fell in the range of 100 to 1000 nM.
The same measure for `CCC1(CC)Oc2cc(C(F)F)ccc2-c2nc(NC(=O)c3c(OC)ncnc3OC)sc21` [compound 105, N-(7-(difluoromethyl)-4,4-diethyl-4H-chromeno[4,3-d]thiazol-2-yl)-4,6-dimethoxypyrimidine-5-carboxamide]: 100 to 1000 nM; for `COc1ncnc(OC)c1C(=O)Nc1nc2c(s1)C1(CCN(C(=O)OC(C)(C)C)C1)Oc1cc(C(F)(F)F)ccc1-2` (stereo not shown) [compound 106, tert-butyl 2-(4,6-dimethoxypyrimidine-5-carboxamido)-7-(trifluoromethyl)spiro[chromeno[4,3-d]thiazole-4,3′-pyrrolidine]-1′-carboxylate]: 100 to 1000 nM; for `CCC1(CC)Oc2cnccc2-c2nc(NC(=O)c3c(OC)ncnc3OC)sc21` [compound 107]: 1000 to 10000 nM.
